Assay results from US12503452B2 (Curza Global, LLC, priority 2019, dated 2025).
Read-outs that look alike come from different tables or passages of the source.

Key:
[1] = system: E. coli S30 extract (bacterial protein synthesis); test: E. coli S30 extract coupled transcription-translation luciferase assay (inhibition of bacterial protein synthesis); format: biochemical; conditions: class by IC50 or % inhibition @ 1 μM, read-out: S30 IC50 (μM/% inhib.)
Method in brief: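 Cell-free coupled transcription-translation in E. coli S30 circular-DNA extract, with pBESTluc plasmid as template and complete amino acid mix. Eight 2-fold compound dilutions were incubated with the extract 1 h at 37 °C, chilled, then luciferase luminescence was read. % inhibition was taken relative to no-inhibitor wells; no-DNA wells gave background.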

[2] = molecular target: Rabbit Reticulocyte Lysate (eukaryotic protein synthesis); test: Rabbit reticulocyte lysate luciferase assay (inhibition of eukaryotic protein synthesis); format: biochemical; conditions: class by IC50 or % inhibition @ 1 μM, read-out: Rabbit reticulocyte IC50 (μM/% inhib.)
Method in brief: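 Nuclease-treated rabbit reticulocyte lysate translating luciferase control RNA, with complete amino acids, was incubated at 30° C. for 90 minutes with 2-fold serial compound dilutions. Luminescence was measured after adding luciferase reagent. % inhibition was relative to water controls, with no-RNA wells as background.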

[3] = system: E. faecalis (Ef); test: Broth microdilution minimum inhibitory concentration (MIC); format: cell-based; conditions: E. faecalis; for MIC: Enterococcus faecalis, read-out: Ef + bicarb MIC
Method in brief: (§1)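 CLSI broth microdilution (M07-A9, slightly modified) in CAMHB, optionally with 6.25 or 25 mM sodium bicarbonate or 0–50% heat-inactivated human serum. Two-fold serial dilutions (8 concentrations, triplicate) were inoculated at 5×10^4 CFU/well from 0.5 McFarland cultures grown at 35±2 °C.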

[4] = system: A. baumannii (Ab); test: as above; format: cell-based; conditions: Acinetobacter baumannii, A. baumannii, read-out: Ab + bicarb MIC
Method in brief: as §1

[5] = system: S. aureus (Sa); test: as above; format: cell-based; conditions: Staphylococcus aureus, S. aureus, read-out: Sa + bicarb MIC
Method in brief: as §1

[6] = system: E. coli (Ec); test: as above; format: cell-based; conditions: Escherichia coli, E. coli, read-out: E. coli + bicarb MIC
Method in brief: as §1

[7] = system: P. aeruginosa (Pa); test: as above; format: cell-based; conditions: P. aeruginosa; for MIC: Pseudomonas aeruginosa, read-out: Pa MIC + bicarb
Method in brief: as §1

[8] = growth medium supplemented with sodium bicarbonate
[9] = growth medium with sodium bicarbonate

## CC(Cc1ccc(-n2ccc(NC(=O)N3CCN(C(=O)C(C)(C)N)CC3)nc2=O)cc1)NC[C@H]1C[C@H](N)C1 (stereo partly drawn) [Compound 156]
[1]
  IC50: < 0.5 µM
[2]
  IC50: > 1 µM
[3]; [8]
  MIC: 8 to 32 µg/mL
[4]; [8]
  MIC: > 32 µg/mL
[5]; [8]
  MIC: < 8 µg/mL
[6]; [8]
  MIC: < 8 µg/mL
[7]; [8]
  MIC: > 32 µg/mL

## CC(Cc1ccc(-n2ccc(NC(=O)N3CCN(C(=O)C(C)(C)N)CC3)nc2=O)cc1)N(C)C[C@H]1C[C@H](N)C1 (stereo partly drawn) [Compound 157]
[1]
  IC50: < 0.5 µM
[2]
  IC50: > 1 µM
[3]; [8]
  MIC: < 8 µg/mL
[4]; [8]
  MIC: > 32 µg/mL
[5]; [8]
  MIC: < 8 µg/mL
[6]; [8]
  MIC: < 8 µg/mL
[7]; [8]
  MIC: > 32 µg/mL

## CCN(C[C@H]1C[C@H](N)C1)C(C)Cc1ccc(-n2ccc(NC(=O)N3CCN(C(=O)C(C)(C)N)CC3)nc2=O)cc1 (stereo partly drawn) [Compound 158]
[1]
  IC50: < 0.5 µM
[2]
  IC50: > 1 µM
[3]; [8]
  MIC: < 8 µg/mL
[4]; [8]
  MIC: > 32 µg/mL
[5]; [8]
  MIC: < 8 µg/mL
[6]; [8]
  MIC: < 8 µg/mL
[7]; [8]
  MIC: 8 to 32 µg/mL

## CC(Cc1ccc(-n2ccc(NC(=O)N3CCN(C(=O)C(C)(C)N)CC3)nc2=O)cc1)NC[C@H]1C[C@@H](N)C1 (stereo partly drawn) [Compound 159]
[1]
  IC50: < 0.5 µM
[2]
  IC50: > 1 µM
[3]; [8]
  MIC: 8 to 32 µg/mL
[4]; [8]
  MIC: > 32 µg/mL
[5]; [8]
  MIC: < 8 µg/mL
[6]; [8]
  MIC: < 8 µg/mL
[7]; [8]
  MIC: > 32 µg/mL

## CC(Cc1ccc(-n2ccc(NC(=O)N3CCN(C(=O)C(C)(C)N)CC3)nc2=O)cc1)N(C)C[C@H]1C[C@@H](N)C1 (stereo partly drawn) [Compound 160]
[1]
  IC50: < 0.5 µM
[2]
  IC50: > 1 µM
[3]; [8]
  MIC: < 8 µg/mL
[4]; [8]
  MIC: > 32 µg/mL
[5]; [8]
  MIC: < 8 µg/mL
[6]; [8]
  MIC: < 8 µg/mL
[7]; [8]
  MIC: > 32 µg/mL

## CCN(C[C@H]1C[C@@H](N)C1)C(C)Cc1ccc(-n2ccc(NC(=O)N3CCN(C(=O)C(C)(C)N)CC3)nc2=O)cc1 (stereo partly drawn) [Compound 161]
[1]
  IC50: < 0.5 µM
[2]
  IC50: > 1 µM
[3]; [8]
  MIC: < 8 µg/mL
[4]; [8]
  MIC: 8 to 32 µg/mL
[5]; [8]
  MIC: < 8 µg/mL
[6]; [8]
  MIC: < 8 µg/mL
[7]; [8]
  MIC: > 32 µg/mL

## CC(Cc1ccc(-n2ccc(NC(=O)N3CCN(C(=O)C(C)(C)N)CC3)nc2=O)cc1)N[C@H]1CC[C@H](N)C1 (stereo partly drawn) [Compound 162]
[1]
  IC50: < 0.5 µM
[2]
  IC50: > 1 µM
[3]; [8]
  MIC: 8 to 32 µg/mL
[4]; [8]
  MIC: > 32 µg/mL
[5]; [8]
  MIC: < 8 µg/mL
[6]; [8]
  MIC: < 8 µg/mL
[7]; [8]
  MIC: > 32 µg/mL

## CC(Cc1ccc(-n2ccc(NC(=O)N3CCN(C(=O)C(C)(C)N)CC3)nc2=O)cc1)N(C)[C@H]1CC[C@H](N)C1 (stereo partly drawn) [Compound 163]
[1]
  IC50: > 1 µM
[2]
  IC50: > 1 µM
[3]; [9]
  MIC: > 32 µg/mL
[4]; [9]
  MIC: > 32 µg/mL
[5]; [9]
  MIC: 8 to 32 µg/mL
[6]; [9]
  MIC: 8 to 32 µg/mL
[7]; [9]
  MIC: > 32 µg/mL

## CCN(C(C)Cc1ccc(-n2ccc(NC(=O)N3CCN(C(=O)C(C)(C)N)CC3)nc2=O)cc1)[C@H]1CC[C@H](N)C1 (stereo partly drawn) [Compound 164]
[1]
  IC50: < 0.5 µM
[2]
  IC50: > 1 µM
[3]; [9]
  MIC: < 8 µg/mL
[4]; [9]
  MIC: 8 to 32 µg/mL
[5]; [9]
  MIC: < 8 µg/mL
[6]; [9]
  MIC: < 8 µg/mL
[7]; [9]
  MIC: > 32 µg/mL

## CC(Cc1ccc(-n2ccc(NC(=O)N3CCN(C(=O)C(C)(C)N)CC3)nc2=O)cc1)NCC1CNC1 (stereo not drawn) [Compound 165]
[1]
  IC50: > 1 µM
[2]
  IC50: > 1 µM
[3]; [9]
  MIC: > 32 µg/mL
[4]; [9]
  MIC: > 32 µg/mL
[5]; [9]
  MIC: > 32 µg/mL
[6]; [9]
  MIC: 8 to 32 µg/mL
[7]; [9]
  MIC: > 32 µg/mL

## CC(Cc1ccc(-n2ccc(NC(=O)N3CCN(C(=O)C(C)(C)N)CC3)nc2=O)cc1)N(C)CC1CNC1 (stereo not drawn) [Compound 166]
[1]
  IC50: > 1 µM
[2]
  IC50: > 1 µM
[3]; [9]
  MIC: > 32 µg/mL
[4]; [9]
  MIC: > 32 µg/mL
[5]; [9]
  MIC: 8 to 32 µg/mL
[6]; [9]
  MIC: 8 to 32 µg/mL
[7]; [9]
  MIC: > 32 µg/mL

## CCN(CC1CNC1)C(C)Cc1ccc(-n2ccc(NC(=O)N3CCN(C(=O)C(C)(C)N)CC3)nc2=O)cc1 (stereo not drawn) [Compound 167]
[1]
  IC50: > 1 µM
[2]
  IC50: > 1 µM
[3]; [9]
  MIC: 8 to 32 µg/mL
[4]; [9]
  MIC: > 32 µg/mL
[5]; [9]
  MIC: 8 to 32 µg/mL
[6]; [9]
  MIC: < 8 µg/mL
[7]; [9]
  MIC: > 32 µg/mL

## CC(Cc1ccc(-n2ccc(NC(=O)N3CCN(C(=O)C(C)(C)N)CC3)nc2=O)cc1)N1CCC(N)CC1 (stereo not drawn) [Compound 169]
[1]
  IC50: < 0.5 µM
[2]
  IC50: > 1 µM
[3]; [9]
  MIC: < 8 µg/mL
[4]; [9]
  MIC: 8 to 32 µg/mL
[5]; [9]
  MIC: < 8 µg/mL
[6]; [9]
  MIC: < 8 µg/mL
[7]; [9]
  MIC: 8 to 32 µg/mL

## CC(Cc1ccc(-n2ccc(NC(=O)N3CCN(C(=O)C(C)(C)N)CC3)nc2=O)cc1)N1CC[C@H](CN)C1 (stereo partly drawn) [Compound 170]
[1]
  IC50: < 0.5 µM
[2]
  IC50: > 1 µM
[3]; [9]
  Ef + bicarb MIC: + (An MIC value (μg/mL) that is 32 μg/mL or greater)
[4]; [9]
  MIC: > 32 µg/mL
[5]; [9]
  MIC: 8 to 32 µg/mL
[6]; [9]
  MIC: < 8 µg/mL
[7]; [9]
  Pa MIC + bicarb: ++ (An MIC value (μg/mL) that is 8 μg/mL or greater and less than 32 μg/mL)

## CC(Cc1ccc(-n2ccc(NC(=O)N3CCN(C(=O)C(C)(C)N)CC3)nc2=O)cc1)N[C@H]1CC[C@H](N)CC1 (stereo partly drawn) [Compound 171]
[1]
  IC50: > 1 µM
[2]
  IC50: > 1 µM
[3]; [9]
  MIC: > 32 µg/mL
[4]; [9]
  MIC: > 32 µg/mL
[5]; [9]
  MIC: 8 to 32 µg/mL
[6]; [9]
  MIC: < 8 µg/mL
[7]; [9]
  MIC: > 32 µg/mL

## CC(Cc1ccc(-n2ccc(NC(=O)N3CCN(C(=O)C(C)(C)N)CC3)nc2=O)cc1)N[C@@H]1CC[C@H](N)C1 (stereo partly drawn) [Compound 172]
[1]
  IC50: < 0.5 µM
[2]
  IC50: > 1 µM
[3]; [9]
  MIC: < 8 µg/mL
[4]; [9]
  MIC: > 32 µg/mL
[5]; [9]
  MIC: < 8 µg/mL
[6]; [9]
  MIC: < 8 µg/mL
[7]; [9]
  MIC: > 32 µg/mL

## CC(Cc1ccc(-n2ccc(NC(=O)N3CCN(C(=O)C(C)(C)N)CC3)nc2=O)cc1)N[C@@H]1CC[C@@H](N)C1 (stereo partly drawn) [Compound 173]
[1]
  IC50: < 0.5 µM
[2]
  IC50: > 1 µM
[3]; [9]
  MIC: 8 to 32 µg/mL
[4]; [9]
  MIC: > 32 µg/mL
[5]; [9]
  MIC: < 8 µg/mL
[6]; [9]
  MIC: < 8 µg/mL
[7]; [9]
  MIC: > 32 µg/mL

## CC(Cc1ccc(-n2ccc(NC(=O)N3CCN(C(=O)C(C)(C)N)CC3)nc2=O)cc1)N[C@H]1CC[C@@H](N)CC1 (stereo partly drawn) [Compound 174]
[1]
  IC50: < 0.5 µM
[2]
  IC50: > 1 µM
[3]; [9]
  MIC: < 8 µg/mL
[4]; [9]
  MIC: 8 to 32 µg/mL
[5]; [9]
  MIC: < 8 µg/mL
[6]; [9]
  MIC: < 8 µg/mL
[7]; [9]
  MIC: > 32 µg/mL
